Columns and labels:
[1] = target: T1, FLT3 (Homo sapiens, UniProt P36888); experiment: RBC HotSpot kinase inhibition assay, FLT3; type: biochemical; conditions: isolated kinase, 33P-ATP, 2 h
T1 sequence (P36888 27-993): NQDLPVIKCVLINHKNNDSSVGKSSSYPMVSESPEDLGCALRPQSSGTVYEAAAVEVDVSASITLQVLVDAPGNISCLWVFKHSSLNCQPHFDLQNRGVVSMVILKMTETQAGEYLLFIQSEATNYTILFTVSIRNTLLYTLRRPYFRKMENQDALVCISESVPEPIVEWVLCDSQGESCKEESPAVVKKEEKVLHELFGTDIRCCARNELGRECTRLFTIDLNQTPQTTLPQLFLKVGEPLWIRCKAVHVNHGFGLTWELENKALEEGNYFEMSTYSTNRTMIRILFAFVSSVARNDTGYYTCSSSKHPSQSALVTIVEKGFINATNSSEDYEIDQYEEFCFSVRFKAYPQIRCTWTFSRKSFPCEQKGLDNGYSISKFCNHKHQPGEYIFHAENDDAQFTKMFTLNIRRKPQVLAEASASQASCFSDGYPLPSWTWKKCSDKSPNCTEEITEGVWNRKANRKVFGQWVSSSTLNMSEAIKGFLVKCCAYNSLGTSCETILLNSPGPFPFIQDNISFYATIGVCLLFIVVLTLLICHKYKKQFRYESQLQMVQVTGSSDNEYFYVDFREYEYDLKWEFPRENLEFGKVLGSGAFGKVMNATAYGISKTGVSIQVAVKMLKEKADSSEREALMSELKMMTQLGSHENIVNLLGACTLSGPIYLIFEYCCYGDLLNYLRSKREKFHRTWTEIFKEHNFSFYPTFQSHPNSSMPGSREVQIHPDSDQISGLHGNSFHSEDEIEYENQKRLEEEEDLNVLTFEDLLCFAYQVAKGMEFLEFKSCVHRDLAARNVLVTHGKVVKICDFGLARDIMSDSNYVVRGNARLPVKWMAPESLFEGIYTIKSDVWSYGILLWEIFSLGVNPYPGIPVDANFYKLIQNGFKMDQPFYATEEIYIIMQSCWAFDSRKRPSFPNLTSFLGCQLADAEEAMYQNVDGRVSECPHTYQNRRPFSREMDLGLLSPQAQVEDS
From the text: (§1) This assay uses the isolated kinase enzyme. This assay is very useful for determining competition of the inhibitor for ATP and/or substrates and for measuring the kinetics of enzyme inhibition. […] Unlike kinase binding assays that measure competition for ATP, the HotSpot Kinase Assay is a functional assay that measures catalytic activity; as such it measures relative functional potency regardless of the mechanism of enzyme inhibition. This assay uses the form of the various enzymes that are easiest to express, which may not necessarily be the form of the enzyme that exist in the cell. (Sometimes the carboxy terminus has been truncated to aid in expression, or, if it is a receptor kinase, the enzyme itself is isolated from the other parts of the receptor that are involved in regulating kinase activity.)
(§2) The reagent used was as follows: Base Reaction buffer; 20 mM Hepes (pH 7.5), 10 mM MgCl2, 1 mM EGTA, 0.01% Brij35, 0.02 mg/ml BSA, 0.1 mM Na3VO4, 2 mM DTT, 1% DMSO. Required cofactors were added individually to each kinase reaction.
(§3) The reaction procedure was as follows: • 1) Substrates were prepared in freshly prepared Reaction Buffer. • 2) Any required cofactors were delivered to the substrate solution above. • 3) Kinase was delivered into the substrate solution and gently mixed. • 4) Compounds were delivered in 100% DMSO into the kinase reaction mixture by Acoustic technology (Echo550; nanoliter range), followed by incubation for 20 min at room temp. • 5) ^33P-ATP was delivered into the reaction mixture to initiate the reaction. • 6) The mixture was incubated for 2 hours at room temperature. • 7) Kinase activity was detected by P81 filter-binding method.
as §1, with “Although not wishing to be limited by theory, it is believed that sometimes” for “(Sometimes”, “activity.” for “activity.)”
(§4) The reagent used was as follows: Base Reaction buffer; 20 mM Hepes (pH 7.5), 10 mM MgCl2, 1 mM EGTA, 0.01% Brij35, 0.02 mg/ml BSA, 0.1 mM Na3 VO4, 2 mM DTT, 1% DMSO.
(§5) Required cofactors were added individually to each kinase reaction.
as §3, with “33P-ATP” for “^33P-ATP”

[2] = target: T2, IRAK4 (Homo sapiens, UniProt Q9NWZ3); experiment: RBC HotSpot kinase inhibition assay, IRAK4; type: biochemical; conditions: isolated kinase, 33P-ATP, 2 h
T2 sequence (Q9NWZ3 1-460): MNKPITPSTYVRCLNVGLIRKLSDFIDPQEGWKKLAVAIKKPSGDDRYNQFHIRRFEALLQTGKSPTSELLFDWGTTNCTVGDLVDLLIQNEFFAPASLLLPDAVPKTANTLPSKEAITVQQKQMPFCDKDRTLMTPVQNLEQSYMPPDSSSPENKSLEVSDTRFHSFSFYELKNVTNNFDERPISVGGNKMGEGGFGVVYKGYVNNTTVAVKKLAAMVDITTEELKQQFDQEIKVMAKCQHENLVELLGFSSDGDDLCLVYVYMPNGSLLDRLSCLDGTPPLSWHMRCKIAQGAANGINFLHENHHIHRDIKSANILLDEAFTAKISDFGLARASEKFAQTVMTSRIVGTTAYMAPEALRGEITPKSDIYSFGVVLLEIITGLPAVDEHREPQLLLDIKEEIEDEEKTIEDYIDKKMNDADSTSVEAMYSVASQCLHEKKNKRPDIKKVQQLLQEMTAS
From the text: as §1, §2, §3
as §1, with “Although not wishing to be limited by theory, it is believed that sometimes” for “(Sometimes”, “activity.” for “activity.)”
as §4, §5
as §3, with “33P-ATP” for “^33P-ATP”

[3] = tested on: MOLM14 D835Y cells; experiment: MOLM14 D835Y cell viability (Cell Titer Glo); type: cell-based; conditions: Homo sapiens
Experimental: Both cell lines have activated FLT3 receptors, each of which carry additional resistance mutations in the kinase domain (D835Y and F691L, respectively).
(§6) MOLM14 D835Y and MOLM14 F691L cells were grown in RPMI-1640 media supplemented with 20% fetal bovine serum (FBS). For viability/cytotoxicity assessments, cells were seeded into 1536-well white polystyrene tissue culture-treated Greiner plates using a Multidrop Combi dispenser (ThermoFisher), in final volume 5 μL of growth media per well, at a density of 1000 cells per well. After cell addition, 23 nL of test compound were transferred into individual wells (22 doses tested for each test compound, with a 1:2 dilution series starting at 10 μM) via a 1536 pin-tool. Bortezomib (final concentration 2.3 μM) was used as a positive control for cell cytotoxicity. Plates were incubated for 48 hours at standard incubator conditions covered by a stainless steel gasketed lid to prevent evaporation. 48 hours post compound addition, 3 μL of Cell Titer Glo (Promega) were added to each well and plates were incubated at room temperature for 15 minutes with the stainless-steel lid in place. Luminescence readings were taken using a Viewlux imager (PerkinElmer) with a 2 second exposure time per plate.
This cell line has activated FLT3 receptors, which carries an additional resistance mutation in the kinase domain at D835Y.
as §6, with “D835Y” for “D835Y and MOLM14 F691L”, “mL” for “μL”, “mM)” for “μM)”

[4] = target: IRAK1 (Homo sapiens, UniProt P51617); experiment: RBC HotSpot kinase inhibition assay, IRAK1; type: biochemical; conditions: isolated kinase, 33P-ATP, 2 h
From the text: as §1, §2, §3
as §1, with “Although not wishing to be limited by theory, it is believed that sometimes” for “(Sometimes”, “activity.” for “activity.)”
as §4, §5
as §3, with “33P-ATP” for “^33P-ATP”

Sequence of IRAK1 (P51617 whole entry): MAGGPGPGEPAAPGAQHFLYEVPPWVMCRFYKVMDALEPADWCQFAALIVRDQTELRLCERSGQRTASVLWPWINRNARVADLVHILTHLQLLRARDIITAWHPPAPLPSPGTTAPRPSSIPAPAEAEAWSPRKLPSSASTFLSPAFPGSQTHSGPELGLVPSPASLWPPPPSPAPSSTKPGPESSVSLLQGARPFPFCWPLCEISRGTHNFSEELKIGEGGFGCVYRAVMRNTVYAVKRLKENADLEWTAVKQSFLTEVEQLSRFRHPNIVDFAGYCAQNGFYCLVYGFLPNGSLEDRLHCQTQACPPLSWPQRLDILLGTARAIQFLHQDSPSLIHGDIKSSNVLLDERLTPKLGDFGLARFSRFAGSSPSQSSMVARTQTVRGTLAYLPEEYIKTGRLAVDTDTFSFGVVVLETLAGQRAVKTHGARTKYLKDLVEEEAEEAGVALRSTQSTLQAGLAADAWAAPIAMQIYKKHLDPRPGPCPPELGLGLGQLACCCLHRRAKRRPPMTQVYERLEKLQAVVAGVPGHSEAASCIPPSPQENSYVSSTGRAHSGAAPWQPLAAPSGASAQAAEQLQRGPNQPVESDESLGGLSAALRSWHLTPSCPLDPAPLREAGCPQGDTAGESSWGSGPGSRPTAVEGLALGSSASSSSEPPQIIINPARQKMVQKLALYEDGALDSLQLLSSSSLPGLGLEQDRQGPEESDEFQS

`COc1cn2ncc(-c3ccnc(N[C@H]4CNC[C@@H]4F)n3)c2nc1C(C)(C)O` [Compound 1a, 2-(3-(2-(((3S,4S)-4-fluoropyrrolidin-3-yl)amino)pyrimidin-4-yl)-6-methoxypyrazolo[1,5-a]pyrimidin-5-yl)propan-2-ol] was tested, and the IC50 ([1]; Table 17) was 2 nM, the IC50 ([2]; Table 17) was 9 nM and the IC50 ([3]; MOLM-14, Table 22, 48 h) was 257 nM. It also gave an IC50 ([4]; Table 17) of 162 nM.
`COc1cnc2c(-c3cccc(N[C@H]4CNC[C@@H]4F)n3)cnn2c1` [Compound 18, N-((3S,4S)-4-fluoropyrrolidin-3-yl)-6-(6-methoxypyrazolo[1,5-a]pyrimidin-3-yl)pyridin-2-amine] gave an IC50 ([1]; Table 11) of 18 nM, an IC50 ([2]; Table 11) of 72 nM and an IC50 ([4]; Table 11) of 2320 nM.
In the case of `COc1cn2ncc(-c3nc(N[C@@H]4CCCNC4)c(C#N)cc3F)c2nc1C1CC1` [Compound 8, (R)-6-(5-cyclopropyl-6-methoxypyrazolo[1,5-a]pyrimidin-3-yl)-5-fluoro-2-(piperidin-3-ylamino)nicotinonitrile], the IC50 ([1]; Table 11) is reported as < 0.5 nM, the IC50 ([2]; Table 11) is reported as < 0.5 nM and the IC50 ([4]; Table 11) is reported as < 0.5 nM.
For `F[C@H]1CNC[C@@H]1Nc1cccc(-c2cnn3cc(C4CC4)cnc23)n1` [Compound 15, 6-(6-cyclopropylpyrazolo[1,5-a]pyrimidin-3-yl)-N-((3S,4S)-4-fluoropyrrolidin-3-yl)pyridin-2-amine], the IC50 ([1]; Table 11) was 15 nM, the IC50 ([2]; Table 11) was 267 nM and the IC50 ([4]; Table 11) was 1290 nM.
With `COc1cn2ncc(-c3cncc(N[C@H]4CNC[C@@H]4F)n3)c2nc1C1CC1` [Compound 10a, 6-(5-cyclopropyl-6-methoxypyrazolo[1,5-a]pyrimidin-3-yl)-N-((3S,4S)-4-fluoropyrrolidin-3-yl)pyrazin-2-amine] the IC50 ([1]; Table 17) was < 0.5 nM, the IC50 ([2]; Table 17) was 0.7 nM and the IC50 ([3]; MOLM-14, Table 22, 48 h) was 81 nM. The IC50 ([4]; Table 17) was 6 nM.
`F[C@H]1CNC[C@@H]1Nc1cccc(-c2cnn3cc(Cl)cnc23)n1` [Compound 14, 6-(6-chloropyrazolo[1,5-a]pyrimidin-3-yl)-N-((3S,4S)-4-fluoropyrrolidin-3-yl)pyridin-2-amine] showed an IC50 ([1]; Table 11) of 32 nM, an IC50 ([2]; Table 11) of 491 nM and an IC50 ([4]; Table 11) of 6220 nM.
With `COc1cn2ncc(-c3ccc(F)c(N[C@H]4CNC[C@@H]4F)n3)c2nc1C1CC1` [Compound 4, 6-(5-cyclopropyl-6-methoxypyrazolo[1,5-a]pyrimidin-3-yl)-3-fluoro-N-((3S,4S)-4-fluoropyrrolidin-3-yl)pyridin-2-amine] the IC50 ([1]; Table 11) was < 0.5 nM, the IC50 ([2]; Table 11) was 0.9 nM and the IC50 ([3]; MOLM-14, Table 16, 48 h) was 36 nM. It also gave an IC50 ([4]; Table 11) of 4 nM.
`CC(C)Oc1cnc2c(-c3cccc(N[C@H]4CNC[C@@H]4F)n3)cnn2c1` [Compound 17, N-((3S,4S)-4-fluoropyrrolidin-3-yl)-6-(6-isopropoxypyrazolo[1,5-a]pyrimidin-3-yl)pyridin-2-amine] was tested, and the IC50 ([1]; Table 11) was 19 nM, the IC50 ([2]; Table 11) was 295 nM and the IC50 ([4]; Table 11) was 3510 nM.
`FC(F)COc1cnc2c(-c3cccc(N[C@H]4CNC[C@@H]4F)n3)cnn2c1` [Compound 16, 6-(6-(2,2-difluoroethoxy)pyrazolo[1,5-a]pyrimidin-3-yl)-N-((3S,4S)-4-fluoropyrrolidin-3-yl)pyridin-2-amine] gave an IC50 ([1]; Table 11) of 4 nM, an IC50 ([2]; Table 11) of 61 nM and an IC50 ([4]; Table 11) of 4300 nM.
With `COc1cn2ncc(-c3nc(N[C@H]4CNC[C@@H]4F)ccc3F)c2nc1C1CC1` [Compound 1, 6-(5-cyclopropyl-6-methoxypyrazolo[1,5-a]pyrimidin-3-yl)-5-fluoro-N-((3S,4S)-4-fluoropyrrolidin-3-yl)pyridin-2-amine] the IC50 ([1]; Table 11) was < 0.5 nM, the IC50 ([2]; Table 11) was < 0.5 nM and the IC50 ([3]; MOLM-14, Table 16, 48 h) was 9 nM. It also gave an IC50 ([4]; Table 11) of 0.9 nM.
With `COc1cn2ncc(-c3nc(N[C@@H]4CCCNC4)c(F)cc3F)c2nc1C1CC1` [Compound 23, (R)-6-(5-cyclopropyl-6-methoxypyrazolo[1,5-a]pyrimidin-3-yl)-3,5-difluoro-N-(piperidin-3-yl)pyridin-2-amine] the IC50 ([1]; Table 11) was < 0.5 nM, the IC50 ([2]; Table 11) was < 0.5 nM and the IC50 ([3]; MOLM-14, Table 16, 48 h) was 5 nM. For the same compound, the IC50 ([4]; Table 11) was < 0.5 nM.
